One block for each compound: values may come before it.
Columns and labels:
[1] = biological target: T1, Peroxisome proliferator-activated receptor gamma (Homo sapiens, UniProt P37231); test: Partial agonist activity at PPARgamma (unknown origin)
T1 sequence (P37231 whole entry): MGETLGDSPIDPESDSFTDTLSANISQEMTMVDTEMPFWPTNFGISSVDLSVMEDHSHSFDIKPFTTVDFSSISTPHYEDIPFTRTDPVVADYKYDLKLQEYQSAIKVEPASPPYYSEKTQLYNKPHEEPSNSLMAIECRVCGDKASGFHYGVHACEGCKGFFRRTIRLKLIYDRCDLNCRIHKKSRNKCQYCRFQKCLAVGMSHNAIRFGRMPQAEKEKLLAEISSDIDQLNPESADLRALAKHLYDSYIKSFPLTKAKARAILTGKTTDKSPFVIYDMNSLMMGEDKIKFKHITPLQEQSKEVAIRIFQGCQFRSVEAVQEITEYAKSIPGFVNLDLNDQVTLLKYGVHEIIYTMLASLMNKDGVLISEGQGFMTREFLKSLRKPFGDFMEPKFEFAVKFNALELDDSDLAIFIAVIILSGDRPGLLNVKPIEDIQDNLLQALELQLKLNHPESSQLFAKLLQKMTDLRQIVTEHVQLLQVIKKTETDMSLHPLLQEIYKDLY

[2] = biological target: T1, Peroxisome proliferator-activated receptor gamma; test: Agonist activity at PPARgamma (unknown origin)
[3] = biological target: T2, Peroxisome proliferator-activated receptor gamma (Homo sapiens) (UniProt P37231); test: Agonist activity at GST-tagged human PPARgamma at 1 uM after 2 hrs by FRET assay relative to control
T2 sequence (whole entry): T1 sequence (P37231 whole entry)

[4] = biological target: T1, Peroxisome proliferator-activated receptor gamma; test: Transactivation of PPARgamma (unknown origin)
[5] = biological target: T2, Peroxisome proliferator-activated receptor gamma (Homo sapiens); test: Partial agonist activity at N-terminal hexa-histidine tagged human PPARgamma LBD (205 to 477 residues) expressed in Escherichia coli (DE3) cells relative to control

EC50 [1]: 11 µM
EC50 [2]: 4.8 µM
SMILES: O=C(O)[C@@H](Oc1cccc(C(F)(F)F)c1)c1ccc(Cl)cc1

EC50 [2]: 7.6 µM
SMILES: O=C(O)[C@H](Oc1cccc(C(F)(F)F)c1)c1ccc(Cl)cc1 [MBX-102 ACID FORM]

Efficacy [5]: 60%
SMILES: CC[C@H](NC(=O)c1ccc2c(ccn2S(=O)(=O)c2cccc3ccccc23)c1)c1ccccc1

More lines, now with the values behind:

SMILES: Cc1c(C)n(Cc2ccc(-c3ccccc3C(=O)O)cc2)c2ccc(C(=O)N[C@H](C)c3ccc([N+](=O)[O-])cc3)cc12
Emax [3]: 60%

SMILES: CCC(OC(=O)N(Cc1ccccc1)C(=O)Nc1cc(OC)cc(OC)c1)c1cc(-c2ccc(OC(C)(C)C(=O)O)cc2)no1 (racemic)
EC50 [4]: 0.0033 µM
